Measured values taken from patent publication US20120149576A1, “METHOD FOR CULTIVATING CROP PLANT” (SUMITOMO CHEMICAL COMPANY, LIMITED, priority 2009, published 2012).

How the values were obtained:
[1] = system: recombinant tobacco line 1609soy#25 leaf discs; experiment: Resistance test using leaf discs on MS agar medium supplemented with saflufenacil; assay type: cell-based; details: for Score of adverse effects (browning or chlorosis) on leaf disc / Ratio of green area to leaf disc area (%): 1609soy#25; for Score of adverse effects (browning or chlorosis) on leaf disc / Observed adverse effect on leaf discs: day 8; for Score of adverse effects (browning or chlorosis) on leaf disc: 5 plants; for Ratio of green area to leaf disc area (%): image analysis of FIG. 1, day 8; for Observed adverse effect on leaf discs: recombinant tobacco line 1609soy#25
Protocol: 1609soy#25: DNA encoding the amino acid sequence of SEQ ID NO:1;
(§1) Homozygote seeds of the recombinant tobacco lines 1609soy#25 and P023, which are described in EP1598423, and progeny seeds of the recombinant tobacco line P-6-1, which is also described in EP1598423, were aseptically sown on MS agar medium supplemented with 100 mg/L kanamycin and screened for plants with kanamaycin resistance. Leaf discs were prepared by cutting true leaves of the selected plants at 1 month after sowing, and placed on MS agar medium supplemented with 0.01 ppm, 0.03 ppm or 0.10 ppm saflufenacil. As negative control, seeds of wild-type SR-1 tobacco plants were aseptically sown on MS agar medium and, similarly, leaf discs were prepared by cutting true leaves of the plants at 1 month after sowing, and placed on MS agar medium supplemented with 0.01 ppm, 0.03 ppm or 0.10 ppm saflufenacil.
(§2) The leaf discs were prepared from 5 individual plants for each experimental plot. Scoring evaluation was conducted according to the degrees of adverse effects manifested as browning or chlorosis. The scoring criteria are as follows:
(§3) In the photograph shown in FIG. 1, the green-colored portions were color extracted using the image analysis software “Win ROOF ver.6.1.0” (MITANI Corporation) and their area was quantified. This was then divided by the area calculated by subtracting the area of the medium from the entire area of the image, thereby calculating the percentage of the area of the green-colored portions to the area of the leaf disc.

[2] = system: wild-type SR-1 tobacco leaf discs; experiment: as above; assay type: cell-based; details: for Score of adverse effects (browning or chlorosis) on leaf disc / Ratio of green area to leaf disc area (%): Wild-type SR-1; for Score of adverse effects (browning or chlorosis) on leaf disc / Observed adverse effect on leaf discs: day 8; for Score of adverse effects (browning or chlorosis) on leaf disc: 5 plants; for Ratio of green area to leaf disc area (%): image analysis of FIG. 1, day 8; for Observed adverse effect on leaf discs: wild-type SR-1 tobacco leaves
Protocol: as §1, §2, §3

[3] = system: recombinant soybean lines J16, J18, J26 and J28; experiment: Resistance test using a spreader: soybean; assay type: in vivo; details: spray application as in Example 2, about two weeks later
Protocol: Seeds of the T2 generation of the recombinant soybean lines J16, […], J26 and J28, which are described in US20060009361, are aseptically sown in the culture pots charged with Kureha soil and grown for about 3 weeks in the phytotron. As negative control, seeds of a wild-type soybean (cv. Jack) are similarly grown in the phytotron. The plants thus obtained are subjected to the saflufenacil application test. The application test is conducted according to the method described above in Example 2. About two weeks later, the susceptibility of the tested recombinant soybean plants to saflufenacil is compared with that of the wild-type soybean plants (cv. Jack) to saflufenacil.

[4] = system: recombinant tobacco line P-6-1 (progeny) leaf discs; experiment: Resistance test using leaf discs on MS agar medium supplemented with saflufenacil; assay type: cell-based; details: for Score of adverse effects (browning or chlorosis) on leaf disc / Ratio of green area to leaf disc area (%): P-6-1; for Score of adverse effects (browning or chlorosis) on leaf disc: 5 plants; for Ratio of green area to leaf disc area (%): image analysis of FIG. 1, day 8
Protocol: P-6-1; DNA encoding the amino acid sequence of SEQ ID NO:1 and DNA encoding the amino acid sequence of SEQ ID NO:3;
as §1, §2, §3

[5] = system: recombinant tobacco line P023 leaf discs; experiment: as above; assay type: cell-based; details: for Score of adverse effects (browning or chlorosis) on leaf disc / Ratio of green area to leaf disc area (%): P023; for Score of adverse effects (browning or chlorosis) on leaf disc / Observed adverse effect on leaf discs: day 8; for Score of adverse effects (browning or chlorosis) on leaf disc: 5 plants; for Ratio of green area to leaf disc area (%): image analysis of FIG. 1, day 8; for Observed adverse effect on leaf discs: recombinant tobacco line P023
Protocol: : DNA encoding the amino acid sequence of SEQ ID NO:3; Homozygote seeds of the recombinant tobacco lines 1609soy#25 and […], which are described in EP1598423, and progeny seeds of the recombinant tobacco line P-6-1, which is also described in EP1598423, were aseptically sown on MS agar medium supplemented with 100 mg/L kanamycin and screened for plants with […] resistance. Leaf discs were prepared by cutting true leaves of the selected plants at 1 month after sowing, and placed on MS agar medium supplemented with 0.01 ppm, 0.03 ppm or 0.10 ppm saflufenacil. As negative control, seeds of wild-type SR-1 tobacco plants were aseptically sown on MS agar medium and, similarly, leaf discs were prepared by cutting true leaves of the plants at 1 month after sowing, and placed on MS agar medium supplemented with 0.01 ppm, 0.03 ppm or 0.10 ppm saflufenacil. […] The leaf discs were prepared from 5 individual plants for each experimental plot. Scoring evaluation was conducted according to the degrees of adverse effects manifested as browning or chlorosis. The scoring criteria are as follows: In the photograph shown in FIG. 1, the green-colored portions were color extracted using the image analysis software “Win ROOF ver.6.1.0” (MITANI Corporation) and their area was quantified. This was then divided by the area calculated by subtracting the area of the medium from the entire area of the image, thereby calculating the percentage of the area of the green-colored portions to the area of the leaf disc.

[6] = system: recombinant tobacco lines 1609soy#17 and #25, 1584soy#16, P023, and 35S-2; experiment: Resistance test using a spreader: tobacco; assay type: in vivo; details: spray application with automatic spreader; about two weeks later; homozygotes of 1609soy#17, #25, 1584soy#16, P023, 35S-2
Source text: Homozygote seeds of the recombinant tobacco lines 1609soy#17 and #25, 1584soy#16, […], and 35S-2, which are described in EP1598423, are aseptically sown on MS agar medium. Subsequently, the germinated individuals are transferred to culture pots charged with Kureha soil (Kureha Chemicals) and acclimated to the outdoor environment in the phytotron. They are than grown for two weeks in the phytotron. As negative control, seeds of wild-type SR-1 tobacco plants are aseptically sown on MS agar medium and, similarly grown in the phytotron. The plants thus obtained are subjected to the saflufenacil application test. The spray solution is prepared by dissolving saflufenacil in an appropriate solvent, adding an adjuvant, and diluting it with water. Application of the spray solution to the plants are conducted using an wheeled automatic spreader (Mamba Architect Office), by homogenously spraying 20 mL of the solution onto the seedlings of the recombinant and wild-type tobacco plants placed within a 0.9 square-meter area to which the solution is applied. About two weeks later, the susceptibility of the tested recombinant tobacco plants to saflufenacil is compared with that of the wild-type SR-1 tobacco plants to saflufenacil. […] Scoring evaluation is conducted according to the degrees of adverse effects manifested as death of individual plants, or browning or chlorosis of the leaves or stems.

In the case of `CC(C)N(C)S(=O)(=O)NC(=O)c1cc(-n2c(=O)cc(C(F)(F)F)n(C)c2=O)c(F)cc1Cl` [Saflufenacil, N′-{2-chloro-4-fluoro-5-[1,2,3,6-tetrahydro-3-methyl-2,6-dioxo-4-(trifluoromethyl)pyrimidine-1-yl]benzoyl}-N-isopropyl-N-methyl sulfamide], the “Score of adverse effects (browning or chlorosis) on leaf disc” value (from here on “Score of adverse effects”) ([1]; saflufenacil 0.01 ppm) is reported as 3.0, the “Ratio of green area to leaf disc area (%)” value (“Ratio of green area … (%)” for short) ([1]; saflufenacil 0.01 ppm) is reported as 85% and the “Score of adverse effects” value ([1]; saflufenacil 0.03 ppm) is reported as 2.0. The “Ratio of green area … (%)” value ([1]; saflufenacil 0.03 ppm) was 80%, the “Score of adverse effects” value ([1]; saflufenacil 0.10 ppm) was 1.0 and the “Ratio of green area … (%)” value ([1]; saflufenacil 0.10 ppm) was 8%. The “Observed adverse effect on leaf discs” value ([1]; 0.01 ppm) was “no adverse effect”, the “Observed adverse effect on leaf discs” value ([1]; 0.03 ppm) was “partial browning” and the “Observed adverse effect on leaf discs” value ([1]; 0.10 ppm) was “overall browning”. The “Score of adverse effects” value ([2]; saflufenacil 0.01 ppm) was 2.0, the “Ratio of green area … (%)” value ([2]; saflufenacil 0.01 ppm) was 77% and the “Score of adverse effects” value ([2]; saflufenacil 0.03 ppm) was 1.0. For the same compound, the “Ratio of green area … (%)” value ([2]; saflufenacil 0.03 ppm) was 20%, the “Score of adverse effects” value ([2]; saflufenacil 0.10 ppm) was 0.2 and the “Ratio of green area … (%)” value ([2]; saflufenacil 0.10 ppm) was 2%. The “Observed adverse effect on leaf discs” value ([2]; 0.01 ppm) was “partial browning”, the “Observed adverse effect on leaf discs” value ([2]; 0.10 ppm) was “overall chlorosis” and the “Susceptibility of recombinant soybean plants to saflufenacil compared with wild-type soybean (cv. Jack)” value [3] was “lower susceptibility”. For the same compound, the “Score of adverse effects” value ([4]; saflufenacil 0.01 ppm, day 8) was 3.0, the “Ratio of green area … (%)” value ([4]; saflufenacil 0.01 ppm) was 87% and the “Score of adverse effects” value ([4]; saflufenacil 0.03 ppm, day 8) was 2.6. The “Ratio of green area … (%)” value ([4]; saflufenacil 0.03 ppm) was 78%, the “Score of adverse effects” value ([4]; saflufenacil 0.10 ppm, day 8) was 3.0 and the “Ratio of green area … (%)” value ([4]; saflufenacil 0.10 ppm) was 83%. For the same compound, the “Observed adverse effect on leaf discs” value ([4]; progeny plants of recombinant tobacco line P-6-1, 0.10 ppm, day 8) was “no adverse effect”, the “Score of adverse effects” value ([5]; saflufenacil 0.01 ppm) was 3.0 and the “Ratio of green area … (%)” value ([5]; saflufenacil 0.01 ppm) was 89%. The “Score of adverse effects” value ([5]; saflufenacil 0.03 ppm) was 3.0, the “Ratio of green area … (%)” value ([5]; saflufenacil 0.03 ppm) was 86% and the “Score of adverse effects” value ([5]; saflufenacil 0.10 ppm) was 2.0. The “Ratio of green area … (%)” value ([5]; saflufenacil 0.10 ppm) was 51%, the “Observed adverse effect on leaf discs” value ([5]; 0.10 ppm) was “partial chlorosis” and the “Observed adverse effect on leaf discs” value ([5]; up to 0.03 ppm) was “no adverse effect”. For the same compound, the “Susceptibility of recombinant tobacco plants to saflufenacil compared with wild-type SR-1” value [6] was “lower susceptibility”.
